Data set [1] is described as follows: Hepatocytes stability, mouse. The format is in vitro ADME. Conditions: data not shown.
The nature of data set [2]: Hepatocytes stability, human. The format is in vitro ADME. The note with it: data not shown. The protocol:
Hepatic metabolism is often a major contributor to drug clearance from the body. Pooled cryopreserved human hepatocytes (commercially available for example from Bioreclamation IVT, LiverPool 20-donor Human Hepatocytes Product. No. X008000) are thawed and re-suspended in Hepatocyte Culture Medium (HCM) complete (commercially available, as for example from Lonza, HBM Hepatocytes Basal Medium Catalog No. CC-3199+HCM SingleQuots Catalog No. CC-4182). Compounds are diluted into the cell suspension (2.5 μl/2.5 mL, 1 million cells/mL) from 3 mM stock solution in DMSO to give a 3 μM concentration (0.1% DMSO). 150 μl (×2) of this mixture are taken and transferred into a 96-deep-well plate containing an equal volume of quenching solution (100% acetonitrile plus 0.1% formic acid) for time 0 incubation. […]
Stability is determined based on analysis of the disappearance of the compound as a function of incubation time, using area ratio (analyte peak area vs internal standard peak area). The elimination constant k is calculated by plotting mean disappearance values on a semi-logarithmic scale and fitting with a best fit linear regression. […] When the half-life could not be calculated, data are reported as: <0.5 or >4 hours. Intrinsic clearance given in μl/min/million cells is calculated using the Equation: Clint=KV/N. Where K=0.693/t1/2, V=incubation volume (ml) and N=number of hepatocytes/sample.

The next data set concerns HBV genotype A. The data set can be described thus: Antiviral activity in HepG2 cells transfected with HBV genotype A plasmid, extracellular HBV DNA qPCR. Conditions: Hepatitis B virus, read-out: HBV inhibition EC50 (Mean ± StD). The data set is classed as cell-based. The protocol: (§1) HepG2 hepatoma cells transfected with HBV plasmids corresponding to the different isolates were used to perform antiviral assay against different HBV genotypes. HBV plasmids were obtained by cloning fragment containing of 1.1-mer HBV genome into the SacI/SaII sites of pcDNA3.1zeo(−) plasmid (V86520, Thermofisher Scientific). The HepG2 cell line was maintained in DMEM, supplemented with 10% of FBS, 1% glutamine and 1% penicillin/streptomycin.
(§2) HBV inhibition activity was determined on different HBV genotypes. For this purpose plasmids pcDNA3.1Zeo(−)-HBV1.1 expressing HBV genotypes A, B, C, D, E were transfected in HepG2 cell line and extracellular HBV quantification was performed by direct qPCR as described above. In detail, cells were seeded at 20,000 cells/well in polylisine coated 96-multiwell plates and 24 h later HBV plasmids were transfected with lipofection using manufacturer's procedure (Lipofectamine 3000 Reagent, Thermofisher Scientific). Five hours after transfection cells were extensively washed with PBS and compounds were added in 8-point dose-response curve in 0.5% DMSO as described above. After 4 days of incubation at 37° C. cells were subjected to cell viability assays and extracellular HBV quantification, in order to evaluate both the cytotoxic potential and the anti-viral activity of compounds, as described above. […]
In general terms: Real-time PCR tracks product formation cycle by cycle.

For another data set, the system named is HBV genotype B. The data set can be described thus: Antiviral activity in HepG2 cells transfected with HBV genotype B plasmid, extracellular HBV DNA qPCR. The data set is classed as cell-based. Conditions: Hepatitis B virus, HepG2, read-out: HBV inhibition EC50 (Mean ± StD, μM). How it is done:
as §1, §2

Another data set deals with HBV genotype C. The data set can be described thus: Antiviral activity in HepG2 cells transfected with HBV genotype C plasmid, extracellular HBV DNA qPCR. The data set is classed as cell-based. Conditions: Hepatitis B virus, read-out: HBV inhibition EC50 (Mean ± StD). The protocol:
as §1, §2

The subject of another data set is HBV genotype D. The data set can be described thus: Antiviral activity in HepG2 cells transfected with HBV genotype D plasmid, extracellular HBV DNA qPCR. The data set is classed as cell-based. Conditions: Hepatitis B virus, read-out: HBV inhibition EC50 (Mean ± StD). How it is done:
as §1, §2

For another data set, the system named is HBV genotype E. The data set can be described thus: Antiviral activity in HepG2 cells transfected with HBV genotype E plasmid, extracellular HBV DNA qPCR. The data set is classed as cell-based. Conditions: Hepatitis B virus, read-out: HBV inhibition EC50 (Mean ± StD). The protocol: as §1, §2

Regarding `Nc1ccc(C(=O)Nc2cc(F)c(F)c(F)c2)cc1S(N)(=O)=O` [Example E3, 4-amino-3-sulfamoyl-N-(3,4,5-trifluorophenyl)benzamide], in data set [1], the “stability in mouse hepatocytes” value is listed as “stable”. In addition, the “stability in human hepatocytes” value in data set [2] is given as “stable”.

By EC50 is commonly meant the concentration needed to bring the measured effect to its halfway point. Consider `Cc1cc(N)c(S(N)(=O)=O)cc1C(=O)Nc1cc(F)c(F)c(F)c1` [Example E17, 4-amino-2-methyl-5-sulfamoyl-N-(3,4,5-trifluorophenyl)benzamide], for which the EC50 in the data set on HBV genotype A is 0.0582 ± 0.0254 µM; in the data set on HBV genotype B it was 0.0498 ± 0.0179 µM; with HBV genotype C it was 0.0282 ± 0.0108 µM; in the data set with HBV genotype D it was 0.0387 ± 0.0111 µM; in the data set with HBV genotype E it was 0.0512 ± 0.0136 µM.

(Values after patent publication US20210276967A1 (OSPEDALE SAN RAFFAELE S.R.L., priority 2018, published 2021).)
